Results as given in PMC10266417, “LeishIF3d is a non-canonical cap-binding protein in Leishmania” (Frontiers in Molecular Biosciences, 2023).

Legend:
LeishIF3d = biological target: T1, LeishIF3d (Leishmania mexicana, UniProt E9B178); test: m7GTP-agarose affinity binding of purified His-tagged protein, elution with free m7GTP, anti-His western blot; settings: m7GTP immobilised on agarose; eluted with free m7GTP
T1 construct: gene LMXM_29_3040; full ORF (1596 bp); recombinant His-tagged from E. coli BL21 (pET52, Ni-NTA); mutants C-terminally SBP-tagged, expressed episomally in L. mexicana
T1 sequence (E9B178 1-531): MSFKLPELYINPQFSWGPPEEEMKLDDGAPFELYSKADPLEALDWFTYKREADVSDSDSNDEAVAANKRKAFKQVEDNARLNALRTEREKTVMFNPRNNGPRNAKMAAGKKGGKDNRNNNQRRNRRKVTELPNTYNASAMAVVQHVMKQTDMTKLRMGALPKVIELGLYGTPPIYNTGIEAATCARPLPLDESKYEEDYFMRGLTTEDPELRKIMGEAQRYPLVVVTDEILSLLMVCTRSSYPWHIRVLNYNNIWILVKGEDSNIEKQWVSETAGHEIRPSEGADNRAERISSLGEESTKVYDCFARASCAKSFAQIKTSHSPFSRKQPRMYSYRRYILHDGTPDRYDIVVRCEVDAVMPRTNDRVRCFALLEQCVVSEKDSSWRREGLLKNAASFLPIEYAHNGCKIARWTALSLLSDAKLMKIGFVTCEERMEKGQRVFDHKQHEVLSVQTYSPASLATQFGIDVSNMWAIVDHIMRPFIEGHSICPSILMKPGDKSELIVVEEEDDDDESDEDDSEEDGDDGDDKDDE

LeishIF4E1 = biological target: T2, LeishIF4E1 (Leishmania mexicana, UniProt E9AZ65); test: m7GTP-agarose affinity pull-down, western blot with LeishIF4E1-specific antibodies; type: biochemical; settings: L. mexicana extract; m7GTP immobilised on agarose; 20 mM HEPES pH 7.4, 50 mM NaCl; 100 uM GTP wash, 200 uM m7GTP elution; positive control
T2 construct: gene LMXM_27_1620; endogenous untagged protein in L. mexicana promastigote extract, detected with specific antibodies
T2 sequence (E9AZ65 1-213): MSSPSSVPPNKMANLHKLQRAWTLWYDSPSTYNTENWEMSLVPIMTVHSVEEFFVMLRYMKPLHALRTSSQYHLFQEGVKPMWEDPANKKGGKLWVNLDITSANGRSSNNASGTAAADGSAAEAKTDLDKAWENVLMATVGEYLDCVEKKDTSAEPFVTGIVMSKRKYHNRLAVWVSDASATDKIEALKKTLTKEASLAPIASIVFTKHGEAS

C[n+]1cn([C@@H]2O[C@H](COP(=O)(O)OP(=O)(O)OP(=O)(O)O)[C@@H](O)[C@H]2O)c2nc(N)[nH]c(=O)c21 [m^7GTP]
m7GTP-agarose affinity binding of purified His-tagged protein, elution with free (LeishIF3d): direct binding of recombinant His-tagged LeishIF3d to m^7GTP | m7GTP-agarose affinity pull-down, western blot with LeishIF4E1-specific antibodi (LeishIF4E1): LeishIF3d could bind m^7GTP, as did the positive control of LeishIF4E1
